Biological target: T1, recombinant human EP-2 receptor (Homo sapiens, UniProt P43116)
T1 construct: stably transfected with full length cDNA encoding human Prostaglandin E2; expressed in transfected cells
Test: In vitro antagonist potency against recombinant human prostaglandin E2 (EP-2) receptor in CHO cells (cAMP, Protocol 1)
Assay type: cell-based
Conditions: CHO cells expressing recombinant human EP-2 receptor, stimulated with 5 nM PGE2; cAMP readout; Ki by Cheng-Prusoff equation; read-out: EP2 Ki
Procedure: 1.0 Measurement of In Vitro Antagonist Potency (IC50) of Compounds Against Recombinant Human Prostaglandin E2 Receptor in CHO Cells
The prostaglandin E2 (EP-2) receptor is Gs coupled and agonism of the receptor by PGE2 results in activation of intracellular adenylate cyclase enzymes that synthesise the second messenger signalling molecule, adenosine 3′,5′-cyclic monophosphate (cAMP). CHO cells expressing the recombinant human EP-2 receptor are stimulated with PGE2 (5 nM) equivalent to approximately […] values to give the maximal cAMP signal. Decreases in cAMP levels following treatment of stimulated recombinant EP-2 cells with potential antagonist compounds were measured and potency (IC50) calculated as follows.
A Chinese hamster ovary (CHO) cell line stably transfected with full length cDNA encoding human Prostaglandin E2 was established using standard molecular biology methods. Test compounds were dissolved in dimethyl sulphoxide (DMSO) at 4 mM. 11 point half log unit increment dilution series of test compound were prepared in DMSO then diluted 1 in 40 in a buffer comprised of phosphate buffered saline (PBS) and 0.05% pluronic F-127 surfactant. Freshly cultured cells at 80-90% confluence were harvested and re-suspended in 90% growth media/10% DMSO. The cells were frozen using a planar freezer and stored in frozen aliquots in cryovials in liquid nitrogen until the day of the experiment. A vial of cells was defrosted in a 37° C. water bath for 2 min, then transferred to 10 ml of Dulbecco's Modified Eagle's Medium (DMEM). The cells were then centrifuged for 5 min at 1000 g and the pellet re-suspended at 1,000,000 cells/ml in DMEM. 5,000 cells (5 ul) were added to 5 ul of the compound dilution series in a 384 well assay plate and pre-incubated for 30 min at 37° C. 5 ul of agonist (15 nM PGE2 in PBS to give 5 nM FAC) was added and plates further incubated for 90 min at 37° C. The relative cAMP concentration in each well was then measured using a β-galactosidase enzyme fragment complementation method purchased in kit form as the Discoverx cAMP II kit from GE Healthcare, UK. […] Sigmoidal curves were fitted to plots of log10 inhibitor concentration vs percent effect. IC50 estimates were determined as the concentration of test compound giving an effect half way between the bottom and top asymptotes of the sigmoidal dose response curve. Each experiment included an IC50 determination for the literature compound as a standard to track assay consistency and allow fair comparison between values obtained in different experiments. The EC50 of PGE2 is used in combination with the ligand concentration in the assay to determine Ki values for antagonist dose responses using the Cheng-Prusoff equation. Consequently an agonist dose response curve is carried out for each experiment using the same incubation as the antagonist plate.

T1 sequence (P43116 whole entry): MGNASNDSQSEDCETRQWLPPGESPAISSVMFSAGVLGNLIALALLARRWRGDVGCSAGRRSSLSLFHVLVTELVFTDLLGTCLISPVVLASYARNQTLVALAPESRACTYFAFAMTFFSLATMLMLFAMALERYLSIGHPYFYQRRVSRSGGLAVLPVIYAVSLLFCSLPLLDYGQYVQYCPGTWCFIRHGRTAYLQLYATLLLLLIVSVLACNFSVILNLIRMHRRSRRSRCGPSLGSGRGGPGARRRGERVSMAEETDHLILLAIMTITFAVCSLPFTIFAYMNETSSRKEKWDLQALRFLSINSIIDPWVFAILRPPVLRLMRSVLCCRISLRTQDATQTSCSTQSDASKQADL

Row | Ki [nM] | SMILES
1 | 252 | O=C(Oc1ccc(Cl)cc1)N1CCC(COc2ccc(-c3ccc(F)cc3)cc2)(C(=O)O)C1 (single isomer, unassigned) [Example 89]
2 | 4.16 | O=C(Oc1ccc(F)cc1)N1CCC(COc2ccc(-c3ccc(F)cc3)cc2)(C(=O)O)C1 (single isomer, unassigned) [Example 90]
3 | 37.4 | O=C(Oc1ccc(F)cc1)N1CCC(COc2ccc(-c3ccc(F)cc3)cc2)(C(=O)O)C1 (single isomer, unassigned) [Example 91]
4 | 7.81 | COc1ccc(OC(=O)N2CCC(COc3ccc(-c4ccc(F)cc4)cc3)(C(=O)O)C2)cc1 (single isomer, unassigned) [Example 92]
5 | 165 | COc1ccc(OC(=O)N2CCC(COc3ccc(-c4ccc(F)cc4)cc3)(C(=O)O)C2)cc1 (single isomer, unassigned) [Example 93]
6 | 431 | COc1ccccc1OC(=O)N1CCC(COc2ccc(-c3ccc(F)cc3)cc2)(C(=O)O)C1 (single isomer, unassigned) [Example 94]
7 | 1.03 | COc1ccc(NC(=O)N2CCC(COc3ccc(-c4ccc(F)cc4)cc3)(C(=O)O)C2)cc1 (single isomer, unassigned) [Example 95]
8 | 178 | COc1ccc(NC(=O)N2CCC(COc3ccc(-c4ccc(F)cc4)cc3)(C(=O)O)C2)cc1 (single isomer, unassigned) [Example 96]
9 | 1.89 | COc1cccc(NC(=O)N2CCC(COc3ccc(-c4ccc(F)cc4)cc3)(C(=O)O)C2)c1 (single isomer, unassigned) [Example 97]
10 | 260 | COc1cccc(NC(=O)N2CCC(COc3ccc(-c4ccc(F)cc4)cc3)(C(=O)O)C2)c1 (single isomer, unassigned) [Example 98]
11 | 1.99 | O=C(Nc1ccccc1Cl)N1CCC(COc2ccc(-c3ccc(F)cc3)cc2)(C(=O)O)C1 (single isomer, unassigned) [Example 99]
12 | 518 | O=C(Nc1ccccc1Cl)N1CCC(COc2ccc(-c3ccc(F)cc3)cc2)(C(=O)O)C1 (single isomer, unassigned) [Example 100]
13 | 3.59 | O=C(Nc1ccc(Cl)cc1)N1CCC(COc2ccc(-c3ccc(F)cc3)cc2)(C(=O)O)C1 (single isomer, unassigned) [Example 101]
14 | 160 | O=C(Nc1ccc(Cl)cc1)N1CCC(COc2ccc(-c3ccc(F)cc3)cc2)(C(=O)O)C1 (single isomer, unassigned) [Example 102]
15 | 3.77 | O=C(Nc1ccccc1F)N1CCC(COc2ccc(-c3ccc(F)cc3)cc2)(C(=O)O)C1 (single isomer, unassigned) [Example 103]
16 | 392 | O=C(Nc1ccccc1F)N1CCC(COc2ccc(-c3ccc(F)cc3)cc2)(C(=O)O)C1 (single isomer, unassigned) [Example 104]
17 | 24.4 | COc1ccccc1C(=O)N1CCC(COc2ccc(-c3ccc(C#N)cn3)cc2)(C(=O)O)C1 (centres unmarked) [Example 3, 3 ((4-(5-cyanopyridin-2-yl)phenoxy)methyl)-1-(2-methoxybenzoyl)pyrrolidine-3-carboxylic acid]
